Assay results published in US8178506B2, “Oligomeric compounds and compositions for use in modulation of small non-coding RNAs” (Regulus Therapeutics Inc., priority 2003, dated 2012).
“And” between values parts separate entries of the source, which are not always exact repeats. Identical values can stand only once. In the oligonucleotide strings, read from the 5' end, every base follows the letter of its sugar. An asterisk marks phosphorothioate; unmarked linkages are phosphodiester. Other units and linkages are bracketed, terminal groups are in braces. A string of capitals states the bases alone. e = 2'-O-(2-methoxyethyl) (MOE); [5mC] = 5-methylcytosine; d = 2'-deoxy (DNA)

Key:
PPARγ = PPARγ mRNA expression in adipocytes (real-time PCR); type: cell-based, human; details: differentiating adipocytes transfected with oligomeric compound
HSL = HSL mRNA expression in adipocytes (real-time PCR); type: cell-based, human; details: differentiating adipocytes transfected with oligomeric compound
Glut4 = Glut4 mRNA expression in adipocytes (real-time PCR); type: cell-based, human; details: differentiating adipocytes transfected with oligomeric compound
aP2 = aP2 mRNA expression in adipocytes (real-time PCR); type: cell-based, human; details: differentiating adipocytes transfected with oligomeric compound
adipocytes = assay: Triglyceride accumulation assay in adipocytes; type: cell-based, human
T47D cells = assay: Caspase-3 activity assay (apoptosis) in T47D cells; details: for Fold Increase over UTC (caspase-3 activity, apoptosis): 200 nM oligomeric compound; for Fold Increase over UTC (caspase-3 activity, apoptosis) / Fold Increase over UTC (caspase activity): 48 hours; for Fold Increase over UTC (caspase activity) / apoptosis in T47D cells: 200 nM; for Fold Increase over UTC (caspase activity): relative to untreated control; for apoptosis in T47D cells: caspase assay, conclusion from Tables 9-12
HeLa cells = assay: Cell cycle assay in HeLa cells; type: cell-based, human; details: for % cells aneuploid / % cells in cell cycle phase G1 / % cells in cell cycle phase G2/M / % cells in cell cycle phase S / % cells in cell cycle phase subG1 / % cells in cell cycle phase: G1 / % cells in cell cycle phase: G2/M / % cells in cell cycle phase: S / % cells in cell cycle phase: aneuploid / % cells in cell cycle phase: subG1: HeLa cells; for % cells aneuploid / % cells in cell cycle phase G1 / % cells in cell cycle phase G2/M / % cells in cell cycle phase S / % cells in cell cycle phase subG1: relative to untreated control (UTC = 100); for phase of the cell cycle in which cells arrest or delay: HeLa
[1] = 150 nM oligomeric compound, 24 hours
[2] = 150 nM oligomeric compound, 48 hours after treatment, relative to untreated control (UTC=100)
[3] = 25 nM, 48 hours, percentage of cells in phase, average of replicates
[4] = 50 nM, 48 hours, percentage of cells in phase, average of replicates
[5] = 100 nM, 48 hours, percentage of cells in phase, average of replicates
[6] = 150 nM, 48 hours, percentage of cells in phase, average of replicates

With “328434 (antisense e[5mC]*eG*e[5mC]*eA*eT*d[5mC]*dT*dT*dG*dA*d[5mC]*dT*dG*dT*dA*eG*e[5mC]*eA*eT*eG) [compound 328434]” as the substance, how does the “PPAR gamma mRNA” value (PPARγ) read?
Its value is 79 percentage of untreated control (UTC).

What about the “HSL mRNA” value (HSL) of the same substance?
The value was 96 percentage of untreated control (UTC).

And the “GLUT4 mRNA” value (Glut4)?
Its value is 83 percentage of untreated control (UTC).

And the “AP2 mRNA” value (aP2)?
The value was 85 percentage of untreated control (UTC).

What about the “TG (triglyceride accumulation)” value (adipocytes; differentiating adipocytes transfected with oligomeric compound) of the same substance?
The value was 91 percentage of untreated control (UTC).

What about the “Fold Increase over UTC (caspase-3 activity, apoptosis)” value (T47D cells; T47D cells, experiment of Table 12) of the same substance?
Its value is 0.8 fold.

For “328647 (eG*eG*eA*eG*eT*dA*dG*dA*dT*dG*dA*dT*dG*dG*dT*eT*eA*eG*e[5mC]*e[5mC]; antisense) [compound 328647]”, which “% cells aneuploid” value (HeLa cells; [1]) is on record?
Its value is 140%.

And the “% cells in cell cycle phase G1” value (HeLa cells; [1])?
The value was 101%.

And the “% cells in cell cycle phase G2/M” value (HeLa cells; [1])?
Its value is 119%.

What about the “% cells in cell cycle phase S” value (HeLa cells; [1]) of the same substance?
The value was 92%.

What about the “% cells in cell cycle phase subG1” value (HeLa cells; [1]) of the same substance?
The value was 140%.

What about the “% cells in cell cycle phase: G1” value (HeLa cells; [2]) of the same substance?
The value was 69%.

What about the “% cells in cell cycle phase: G2/M” value (HeLa cells; [2]) of the same substance?
Its value is 118%.

And the “% cells in cell cycle phase: S” value (HeLa cells; [2])?
The value was 153%.

And the “% cells in cell cycle phase: aneuploid” value (HeLa cells; [2])?
Its value is 136%.

What about the “% cells in cell cycle phase: subG1” value (HeLa cells; [2]) of the same substance?
Its value is 589%.

What about the “Fold Increase over UTC (caspase activity)” value (T47D cells; T47D cells) of the same substance?
The value was 0.9.

Which results are given for “328421 (antisense eG*e[5mC]*eT*eT*eA*dG*d[5mC]*dT*dG*dT*dG*dT*d[5mC]*dT*dT*eA*e[5mC]*eA*eG*e[5mC]) [compound 328421]”?
% cells aneuploid (HeLa cells; [1]): 70%; % cells in cell cycle phase G1 (HeLa cells; [1]): 47%; % cells in cell cycle phase G2/M (HeLa cells; [1]): 200%; % cells in cell cycle phase S (HeLa cells; [1]): 105%; % cells in cell cycle phase subG1 (HeLa cells; [1]): 288%; % cells in cell cycle phase: G1 (HeLa cells; [2]): 30%; % cells in cell cycle phase: G2/M (HeLa cells; [2]): 198%; % cells in cell cycle phase: S (HeLa cells; [2]): 202%; % cells in cell cycle phase: aneuploid (HeLa cells; [2]): 64%; % cells in cell cycle phase: subG1 (HeLa cells; [2]): 1103%; Fold Increase over UTC (caspase activity) (T47D cells; T47D cells): 1.2

How did the “phase of the cell cycle in which cells arrest or delay” value (HeLa cells; 150 nM, 24 hours) turn out when “ISIS 328421: 5-10-5 2′-MOE gapmer PS; targets mir-30d pri-miRNA (eG*e[5mC]*eT*eT*eA*dG*d[5mC]*dT*dG*dT*dG*dT*d[5mC]*dT*dT*eA*e[5mC]*eA*eG*e[5mC])” was run?
Its value is “G2/M-phase”.

What about the “phase of the cell cycle in which cells arrest or delay” value (HeLa cells; 150 nM, 48 hours) of the same substance?
The value was “S- and G2/M-phases”.

And the “apoptosis in T47D cells” value (T47D cells)?
The value was “induce apoptosis”.

How did the “% cells in cell cycle phase: G2/M” value (HeLa cells; 25 nM, 48 hours) turn out when “328383 (eA*eG*eA*eG*eG*dG*dG*dA*dG*dA*d[5mC]*dG*dA*dG*dA*eG*e[5mC]*eA*e[5mC]*eT) [compound 328383]” was run?
Its value is 18%.

And the “% cells in cell cycle phase: G1” value (HeLa cells; [3])?
Its value is 57%.

And the “% cells in cell cycle phase: S” value (HeLa cells; [3])?
The value was 25%.

And the “% cells in cell cycle phase: aneuploid” value (HeLa cells; [3])?
The value was 12%.

What about the “% cells in cell cycle phase: subG1” value (HeLa cells; [3]) of the same substance?
Its value is 1.9%.

What about the “% cells in cell cycle phase: G2/M” value (HeLa cells; 50 nM, 48 hours) of the same substance?
Its value is 18%.

What about the “% cells in cell cycle phase: G1” value (HeLa cells; [4]) of the same substance?
Its value is 56%.

What about the “% cells in cell cycle phase: S” value (HeLa cells; [4]) of the same substance?
The value was 25%.

What about the “% cells in cell cycle phase: aneuploid” value (HeLa cells; [4]) of the same substance?
Its value is 13%.

What about the “% cells in cell cycle phase: subG1” value (HeLa cells; [4]) of the same substance?
Its value is 1.3%.

What about the “% cells in cell cycle phase: G2/M” value (HeLa cells; 100 nM, 48 hours) of the same substance?
Its value is 30%.

What about the “% cells in cell cycle phase: G1” value (HeLa cells; [5]) of the same substance?
Its value is 36%.

And the “% cells in cell cycle phase: S” value (HeLa cells; [5])?
The value was 34%.

What about the “% cells in cell cycle phase: aneuploid” value (HeLa cells; [5]) of the same substance?
Its value is 10%.

What about the “% cells in cell cycle phase: subG1” value (HeLa cells; [5]) of the same substance?
Its value is 9.3%.

What about the “% cells aneuploid” value (HeLa cells; [1]) of the same substance?
The value was 92% and 98%.

What about the “% cells in cell cycle phase G1” value (HeLa cells; [1]) of the same substance?
Its value is 55% and 63%.

And the “% cells in cell cycle phase G2/M” value (HeLa cells; [1])?
The value was 222% and 183%.

And the “% cells in cell cycle phase S” value (HeLa cells; [1])?
Its value is 82% and 97%.

What about the “% cells in cell cycle phase subG1” value (HeLa cells; [1]) of the same substance?
The value was 314% and 289%.

And the “% cells in cell cycle phase: G1” value (HeLa cells; [2])?
Its value is 53% and 54%.

What about the “% cells in cell cycle phase: G2/M” value (HeLa cells; [2]) of the same substance?
The value was 124% and 150%.

What about the “% cells in cell cycle phase: S” value (HeLa cells; [2]) of the same substance?
The value was 217% and 178%.

And the “% cells in cell cycle phase: aneuploid” value (HeLa cells; [2])?
Its value is 90%.

What about the “% cells in cell cycle phase: G2/M” value (HeLa cells; 150 nM, 48 hours) of the same substance?
Its value is 34%.

And the “% cells in cell cycle phase: G1” value (HeLa cells; [6])?
The value was 29%.

And the “% cells in cell cycle phase: S” value (HeLa cells; [6])?
Its value is 36%.

And the “% cells in cell cycle phase: aneuploid” value (HeLa cells; [6])?
The value was 11%.

What about the “% cells in cell cycle phase: subG1” value (HeLa cells; [6]) of the same substance?
Its value is 11.8%.

And the “Fold Increase over UTC (caspase-3 activity, apoptosis)” value (T47D cells; T47D cells, experiment of Table 10)?
Its value is 1.2 fold.

For “GCTGACCTTTTTGCTTCTCA (sugars from the 5' end e5 d10 e5, all phosphorothioate, methylation of C not given here) [ISIS 138648]”, which triglyceride accumulation (adipocytes; preadipocytes, 250 nM, day nine) is on record?
Its triglyceride accumulation is “decreased triglyceride production”.

What about the “increase in caspase activity” value (T47D cells; T47D cells) of the same substance?
Its value is 41%.

Which “Fold Increase over UTC (caspase-3 activity, apoptosis)” value (T47D cells; T47D cells, experiment of Table 11) does the source give for “328410 (antisense eG*eG*eG*e[5mC]*e[5mC]*dT*dA*dT*d[5mC]*d[5mC]*dA*dA*dA*dG*dT*eG*eA*e[5mC]*eA*eG) [compound 328410]” here?
The value was 1.5 fold.

For “AGCCAGTGTGTAAAATGAGA (2'-MOE gapmer, phosphorothioate, further chemistry not given here) [ISIS 328700]”, which “apoptosis in T47D cells” value (T47D cells) is on record?
Its value is “prevent or have a protective effect from apoptosis”.

For “SEQ ID NO 498: gapmer of Tables 9-12 having this SEQ ID NO (antisense eG*eG*e[5mC]*eA*e[5mC]*dT*dT*d[5mC]*dA*dT*dT*dG*d[5mC]*dT*dG*e[5mC]*eT*eG*e[5mC]*e[5mC])”, which “apoptosis in T47D cells” value (T47D cells) is on record?
Its value is “induce apoptosis”.

For “CTCTAGCTCCCTCACCAGTG (antisense; same sequence listed as MOE 5-10-5 gapmer and as uniform MOE, further chemistry not given here) [ISIS 328696]”, which “apoptosis in T47D cells” value (T47D cells) is on record?
The value was “induce apoptosis”.

With “328420 (antisense eG*e[5mC]*eT*eG*eA*dT*dT*dA*d[5mC]*dG*dA*dA*dA*dG*dA*e[5mC]*eA*eG*eG*eA) [compound 328420]” as the substance, how does the “Fold Increase over UTC (caspase activity)” value (T47D cells; T47D cells) read?
The value was 1.0.
